{"source": "patent US20240197814A1", "about": "“MATERIALS AND METHODS FOR THE PREVENTION AND TREATMENT OF VIRAL DISEASES” (priority 2021, published 2024)", "assay_type_in_all_cases": "cell-based", "key": {"HIV-1 IIIB": {"tested_on": "HIV-1 IIIB", "assay": "In vitro HIV-1 prevention model, TZM-bl-FcRI cells, β-galactosidase", "conditions": "TZM-bl-FcRI cells, 0.1, 0.25 and 1 μM peptide, 48 h", "procedure": "Sixty-seven (67) compounds from a library of peptides included in TABLE 1 were evaluated for inhibition of HIV-1 IIIB in TZM-bl-FcRI cells. The compounds were tested at three (3) concentrations with six (6) replicates each for efficacy and toxicity for 48 hours in this model. Virus was diluted 1:128, based on a previous titration. The test article was dissolved in DMSO to generate a stock solution, and dosing solutions were prepared by dilution of the stock solution using the appropriate volume of PBS. These dosing solutions were mixed with predetermined volumes of the virus suspension, based on the titration data, and were incubated for 30 min at 37° C./5% CO2.\nFollowing incubation, the virus/compound mixture was added to pre-plated TZM-bl-FcRI cells and the necessary volume of assay media (based on the titration). The culture was incubated for six hours under the above conditions and then washed to remove residual virus and compound. The cultures were incubated for an additional 48 hours at 37° C./5% CO2 before measuring β-galactosidase in the wells using a chemiluminescent endpoint.\nThe study was carried out using a 96-well format. The first row of 12 wells was used as a negative control (cells with no virus or test compound added). […] Peptide 346-001 served as a positive control on each plate, such that three other test compounds could be evaluated per plate. […]"}, "[1]": {"tested_on": "SARS-CoV-2 (2019-nCoV/USA-WA1/2020 strain)", "conditions": "60% confluent VERO E6, 48 h"}, "[2]": {"tested_on": "SARS-CoV-2 (2019-nCoV/USA-WA1/2020 strain)", "conditions": "80% confluent VERO E6, 48 h"}, "[3]": {"tested_on": "SARS-CoV-2 (2019-nCoV/USA-WA1/2020 strain)", "conditions": "VERO E6, 48 h"}}, "note": "Where two headings read alike, the source gives them in different places."}
{"substance": "Ac-SWLRDIWDWICEVLSDFKC(succinimido-propionylaminoethyl-mPEG2K)-NH2 (Ac-SWLRDIWDWICEVLSDFKC(succinimido‑propionylaminoethyl‑mPEG2K)-NH2) [Peptide 346-064]", "values": [{"measurement": "potency against HIV-1 compared with peptide 346-001", "setting": "HIV-1 IIIB", "result": "increase in potency"}]}
{"substance": "GSWLRDIWDWICEVLSDFK [Peptide 346-003]", "values": [{"measurement": "dose response curve shape", "setting": "[1]", "result": "unexpected and unusual dose response curve shape"}]}
{"substance": "SIWRDWVDLICEFLSDWK [Peptide 346-007]", "values": [{"measurement": "dose-response relationship", "setting": "[2]", "result": "steep dose response relationship"}, {"measurement": "potency relative to the other peptides tested", "setting": "[2]", "result": "ca. double"}]}
{"substance": "SWLRDIWDWICEVLSDFK [Peptide 346-001, virucidal amphipathic α-helical peptide derived from the hepatitis C virus (HCV) NS5A membrane anchor domain]", "values": [{"measurement": "reduction on viral copy numbers", "setting": "[3]; 50 μM dosing concentration", "result": "> 5 orders of magnitude"}, {"measurement": "reduction on viral copy numbers", "setting": "[3]; 125 μM dosing concentration", "result": "> 7 orders of magnitude"}, {"measurement": "potency against SARS-CoV-2 infection", "setting": "[3]", "result": "high potency"}]}
